Counter-ions that a name gives are not always drawn.
Experiments:
[1] = Metabolic stability in mouse liver microsomes (MLM); assay type: in vitro ADME, CD-1 mice; conditions: CD-1, mouse, pooled mouse liver microsomes, pH 7.4, NADPH
Experimental: MLM Stability. Pooled MLM from CD-1 mice (BIOIVT M00501) were used. Microsomal incubations were carried out in multi-well plates. […] Control incubations were performed by replacing the NADPH-cofactor system with PBS. Test compounds (1 μM, final solvent concentration 1.0%) were incubated with microsomes at 37° C. with constant shaking. Six time points over 60 minutes were analyzed, with 60 μL aliquots of the reaction mixture being drawn at each time point.

[2] = Pharmacokinetics in mice, plasma; assay type: in vivo, C57BL/6 mice
Experimental: (§1) Animals. Male C57BL/6 mice, aged 8-12 weeks, were used in these studies. Four mice were housed in each cage. Temperature and humidity were maintained at 22±3° C. and 30-70%, respectively, and illumination was controlled to give a 12 h light and 12 h dark cycle. Temperature and humidity were recorded by an auto-controlled data logger system. All animals were provided laboratory rodent diet. Reverse osmosis water treated with ultraviolet light was provided ad libitum. Animals were randomly assigned to treatment groups.
(§2) Drugs. Compounds 4 and 5 were prepared as described above. All other compounds were commercially obtained. Test compounds were used as the hydrogen fumarate (1 and 2) or hydrochloride (3, 4, and 5) salts and were dissolved in a vehicle consisting of normal saline. They were then administered intravenously (IV) via the tail vein, subcutaneously (SC), or orally (PO) via gavage at a dose of 1 or 10 mg/kg (calculated based on the free base) and at a volume of 5 ml/kg body weight.
(§3) Sample Collection and Bioanalysis. Blood samples (approximately 60 μL) were collected under light isoflurane anesthesia (Surgivet®) from the retro orbital plexus at 0.08, 0.25, 0.5, 1, 2, 4, 8, and 24 h (4 animals per time point). Immediately after blood collection, plasma was harvested by centrifugation at 4,000 rpm for 10 min at 4° C. and samples were stored at −70±10° C. until bioanalysis. Following blood collection, animals were immediately sacrificed, the abdominal vena-cava was cut open, and the whole body was perfused from the heart using 10 mL of normal saline, and brain samples were collected from all animals. After isolation, brain samples were rinsed three times in ice-cold normal saline (for 5-10 seconds/rinse using ˜5-10 mL normal saline in disposable petri dish for each rinse) and dried on blotting paper. Brain samples were homogenized using ice-cold phosphate-buffered saline (pH 7.4). Total homogenate volume was three times the tissue weight. All homogenates were stored at −70±10° C. until bioanalysis. For bioanalysis, 25 μL aliquots of plasma/brain study samples or spiked plasma/brain calibration standards were added to individual pre-labeled micro-centrifuge tubes followed by 100 μL of an internal standard solution (glipizide, 500 ng/ml in acetonitrile) except for blanks, where 100 μL of acetonitrile was added. Samples were vortexed for 5 minutes and then centrifuged for 10 minutes at 4,000 rpm at 4° C. Following centrifugation, 100 μL of each clear supernatant was transferred to a 96 well plate and analyzed with a fit-for-purpose LC-MS/MS method, with authentic samples of each analyte used for calibration and identification.
(§4) Data Analysis. Pharmacokinetic parameters were estimated using the non-compartmental analysis tool of Phoenix® WinNonlin software (Ver 8.0).

[3] = Pharmacokinetics in mice, brain; assay type: in vivo, C57BL/6 mice; conditions: for Tmax / Cmax / AUC0-last / half-life: mouse brain
Experimental: as §1, §2, §3, §4

[4] = system: monoamine oxidase A and B (MAO-A and MAO-B); assay: Stability in the presence of monoamine oxidases (human liver mitochondria); assay type: in vitro ADME; conditions: for MAO stability (in words): human liver mitochondria preparation; for half-life at 1 μM / microsomal CLint at 1 μM: human liver mitochondria, pH 7.4; for half-life at 1 μM / microsomal CLint at 1 μM / Remaining (t = 60 min): human mitochondrial preparation, 1 μM
Experimental: Liver Mitochondria Incubations. Human liver mitochondria (Xenotech H0610.M) were used. Mitochondrial incubations were carried out in multi-well plates. […] Six time points over 60 minutes were analyzed.

[5] = Stability in mouse brain homogenate; assay type: in vitro ADME, CD-1 mice; conditions: for half-life at 1 μM: male, CD-1; for half-life at 1 μM / % Compound Remaining (after 120 min): mouse brain homogenate, 37° C., 1 μM
Experimental: Mouse Brain Homogenate Stability. Frozen mouse brain homogenate (pooled from male CD-1 mice, BioreclamationIVT, MSE00BRAINMZA) was thawed in a water bath at 37° C. immediately prior to use. Positive controls and test compounds (final concentration in incubation medium=1 μM for test compounds and 2 μM for controls, all with 2% DMSO) were incubated in duplicate for each time point (0, 10, 30, 60, and 120 min) in the mouse brain homogenate at a total reaction volume of […] at 37° C. At the end of each incubation period, reactions were immediately quenched with 400 μL of acetonitrile containing internal standard (200 ng/mL tolbutamine and 200 ng/ml labetalol) and mixed thoroughly. Plates were then sealed, shaken for 20 min, and centrifuged at 4,000 rpm and 4° C. for 20 min. Aliquots of 50 μL of each supernatant were diluted into 100 μL of water and the mixtures were then shaken again for 10 min.

[6] = Stability in rat brain homogenate; assay type: in vitro ADME, Sprague Dawley rats; conditions: for half-life at 1 μM: male, Sprague Dawley; for half-life at 1 μM / % Compound Remaining (after 120 min): rat brain homogenate, 37° C., 1 μM
Experimental: Rat Brain Homogenate Stability. Frozen rat brain homogenate (pooled from male Sprague Dawley rats, BioreclamationIVT, RATOOBRAINMZA) was thawed in a water bath at 37° C. immediately prior to use. Positive controls and test compounds (final concentration in incubation medium=1 μM for test compounds and 2 μM for controls, all with 2% DMSO) were incubated in duplicate for each time point (0, 10, 30, 60, and 120 min) in the rat brain homogenate at a total reaction volume of 100 μL at 37° C. At the end of each incubation period, reactions were immediately quenched with 400 μL of acetonitrile containing internal standard (200 ng/ml tolbutamine and 200 ng/ml labetalol) and mixed thoroughly. Plates were then sealed, shaken for 20 min, and centrifuged at 4,000 rpm and 4° C. for 20 min. Aliquots of 50 μL of each supernatant were diluted into 100 uL of water and the mixtures were then shaken again for 10 min.

[7] = male, C57BL/6, mouse plasma, SC, 1 mg/kg
[8] = male, C57BL/6, mouse plasma, SC, 10 mg/kg
[9] = male, C57BL/6, mouse plasma, SC, 10 mg/kg, read-out: Cmax
[10] = male, C57BL/6, SC, 10 mg/kg, read-out: Cmax
[11] = male, C57BL/6, mouse plasma, IV, 1 mg/kg
[12] = male, C57BL/6, mouse plasma, oral, 1 mg/kg

Compound | half-life at 1 μM [1] | microsomal CLint at 1 μM [1] | AUC(0-t) [2, 8] | Tmax [2, 8] | half-life [2, 8] | Cmax [2, 9] | Tmax ([3]; male, C57BL/6, SC, 10 mg/kg) | Cmax [3, 10] | AUC0-last ([3]; SC, 10 mg/kg) | MAO stability (in words) [4] | half-life at 1 μM [4] | microsomal CLint at 1 μM [4] | Remaining (t = 60 min) [4] | stability in mouse brain homogenate (in words) [5] | half-life at 1 μM [5] | % Compound Remaining (after 120 min) [5] | stability in rat brain homogenate (in words) [6] | half-life at 1 μM [6] | % Compound Remaining (after 120 min) [6] | other results
CN(C)CCc1c[nH]c2ccc(F)cc12 [Compound 5, 2-(5-fluoro-1H-indol-3-yl)-N,N-dimethylethan-1-amine hydrochloride] | 27.3 min | 50.8 µL/min/mg | 247 ng·h/mL | 15 min | 16.2 min | 363 ng/mL | 15 min | 778 ng/g | 376.09 ng·h/g | highly metabolized | 8.7 min | 266 µL/min/mg | 0.9% | highly unstable | 3.1 min | 0.0% | highly unstable | 2.7 min | 0.0% | AUC(0-t) [2, 7]: 11 ng·h/mL; Tmax [2, 7]: 4.8 min; Cmax ([2]; male, C57BL/6, mouse plasma, SC, 1 mg/kg, read-out: Cmax): 41.6 ng/mL; Tmax ([3]; male, C57BL/6, SC, 1 mg/kg): 4.8 min; Cmax ([3]; male, C57BL/6, SC, 1 mg/kg, read-out: Cmax): 22 ng/g
CCN(C)CCc1c[nH]c2cccc(O)c12 [Compound 6] | > 145 min | < 9.6 µL/min/mg | 1410 ng·h/mL | 4.8 min | 66 min | 1160 ng/mL | 30 min | 2920 ng/g | 3,549.18 h*ng/g | highly stable | > 145 min | < 15.9 µL/min/mg | 112.3% | intermediate stability | 45.8 min | 16.7% | intermediate stability | 53 min | 20.9% | half-life ([3]; male, C57BL/6, SC, 10 mg/kg): 64.2 min
CN(C)CCc1c[nH]c2cccc(O)c12 [Psilocin, psilocin, reference compound] | 127 min | 10.9 µL/min/mg |  |  |  |  |  |  |  | highly stable | > 145 min | < 15.9 µL/min/mg | 112.1% | high stability | > 289 min | 97.6% | intermediate stability | 115 min | 46.1% | AUC(0-t) [2, 11]: 79.9 ng·h/mL; clearance [2, 11]: 204 mL/min/kg; half-life [2, 11]: 66 min; Cmax ([2]; male, C57BL/6, mouse plasma, IV, 1 mg/kg, read-out: Cmax (C0 back-extrapolated to t = 0)): 195 ng/mL; AUC(0-t) [2, 12]: 51.1 ng·h/mL; Tmax [2, 12]: 10.2 min; half-life [2, 12]: 118 min; Cmax ([2]; male, C57BL/6, mouse plasma, oral, 1 mg/kg, read-out: Cmax): 85.9 ng/mL; F ([2]; mouse, oral, 1 mg/kg, based on plasma AUC0-last): 64%; clearance ([3]; male, C57BL/6, mouse brain table, IV, 1 mg/kg): 24.1 mL/min/kg; half-life ([3]; male, C57BL/6, IV, 1 mg/kg): 182 min; Cmax ([3]; male, C57BL/6, IV, 1 mg/kg, read-out: Cmax (C0 back-extrapolated to t = 0)): 1200 ng/g; Tmax ([3]; male, C57BL/6, oral, 1 mg/kg): 10.2 min; half-life ([3]; male, C57BL/6, oral, 1 mg/kg): 175 min; Cmax ([3]; male, C57BL/6, oral, 1 mg/kg, read-out: Cmax): 211 ng/g; AUC0-last ([3]; IV, 1 mg/kg): 702 ng·h/g; AUC0-last ([3]; oral, 1 mg/kg): 399 ng·h/g; F ([3]; mouse, oral, 1 mg/kg, based on brain AUC0-last): 57%
